Results reported in PubChem BioAssay AID276 (DTP/NCI, 2004).
Several values for one entry are separate records, joined by “and”; a condition that tells them apart may be missing. Equal entries are not always repeated. Toxic doses and inconclusive results are not listed. How the source made its calls: active means survival T/C of 150% or more; inactive means T/C below 125% in these data.

Test system: B6C3F1 mice, Lewis lung carcinoma iv, survival T/C
Assay: NCI In Vivo Anticancer Drug Screen. Data for tumor model Lewis Lung Carcinoma (intravenous) in B6C3F1 mice
Details: endpoint: median survival time, schedule: Q01DX009 (ip), higher = longer survival
Summary of the method: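 Read-out is survival, expressed as the treated-group measurement over the vehicle control-group measurement. Animals bore a transplantable tumor and were given compound.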

[1] = dose: 100.0 mg/kg/injection, vehicle: Klucel (hydroxypropylcellulose) (HPC)
[2] = dose: 200.0 mg/kg/injection, vehicle: Klucel (hydroxypropylcellulose) (HPC)
[3] = dose: 400.0 mg/kg/injection, vehicle: Klucel (hydroxypropylcellulose) (HPC)
[4] = dose: 12.5 mg/kg/injection, vehicle: saline
[5] = dose: 25.0 mg/kg/injection, vehicle: saline
[6] = dose: 50.0 mg/kg/injection, vehicle: saline
[7] = dose: 100.0 mg/kg/injection, vehicle: saline
[8] = dose: 200.0 mg/kg/injection, vehicle: saline
[9] = dose: 12.5 mg/kg/injection, vehicle: saline with Tween-80
[10] = dose: 25.0 mg/kg/injection, vehicle: saline with Tween-80
[11] = dose: 50.0 mg/kg/injection, vehicle: saline with Tween-80
[12] = dose: 100.0 mg/kg/injection, vehicle: saline with Tween-80

Measured: T/C

CCC(C)Nc1ccc(N)cc1 (stereo not given)
inactive: dose: 1.5 mg/kg/injection, vehicle: Klucel (hydroxypropylcellulose) (HPC) 86 % of control | dose: 3.0 mg/kg/injection, vehicle: Klucel (hydroxypropylcellulose) (HPC) 98 % of control | dose: 6.0 mg/kg/injection, vehicle: Klucel (hydroxypropylcellulose) (HPC) 94 % of control | dose: 12.0 mg/kg/injection, vehicle: Klucel (hydroxypropylcellulose) (HPC) 93 % of control

O=C1CCCCC1C(=O)C(F)(F)F (stereo not given)
inactive: dose: 12.5 mg/kg/injection, vehicle: saline + Tween-80 + alcohol 96 % of control | dose: 25.0 mg/kg/injection, vehicle: saline + Tween-80 + alcohol 111 % of control | dose: 50.0 mg/kg/injection, vehicle: saline + Tween-80 + alcohol 94 % of control

Cc1ccc(C2NC(=S)N3C(c4ccc(C)cc4)NC(=S)N23)cc1 (stereo not given)
inactive: dose: 25.0 mg/kg/injection, vehicle: Klucel (hydroxypropylcellulose) (HPC) 103 % of control | dose: 50.0 mg/kg/injection, vehicle: Klucel (hydroxypropylcellulose) (HPC) 101 % of control | [1] 93 % of control | [2] 99 % of control | [3] 98 % of control | dose: 800.0 mg/kg/injection, vehicle: Klucel (hydroxypropylcellulose) (HPC) 109 % of control

O=C1c2ccccc2C(=O)c2c(NCCNCCO)ccc(O)c21
inactive: dose: 2.5 mg/kg/injection, vehicle: saline 104 % of control | dose: 5.0 mg/kg/injection, vehicle: saline 116 % of control | dose: 10.0 mg/kg/injection, vehicle: saline 96 % of control | dose: 20.0 mg/kg/injection, vehicle: saline 104 % of control | dose: 40.0 mg/kg/injection, vehicle: saline 117 % of control | dose: 80.0 mg/kg/injection, vehicle: saline 117 % of control

CCCCNc1ccc2nnc(C)n2n1
inactive: dose: 50.0 mg/kg/injection, vehicle: DMSO 100 % of control | dose: 100.0 mg/kg/injection, vehicle: DMSO 100 % of control | dose: 200.0 mg/kg/injection, vehicle: DMSO 102 % of control

N[C@@H](Cc1ccc(N(CCCl)CCCl)cc1)C(=O)O
inactive: dose: 0.5 mg/kg/injection, vehicle: saline 102 % of control | dose: 1.0 mg/kg/injection, vehicle: saline 95 % of control | dose: 2.0 mg/kg/injection, vehicle: saline 99 % of control

O=S(=O)(SC(S(=O)(=O)c1ccccc1)S(=O)(=O)c1ccccc1)c1ccccc1
inactive: [1] 100 % of control | [2] 102 % of control | [3] 98 % of control

O=C(O)C1CC(c2ccccc2)=NN1c1ccccc1 (stereo not given)
inactive: dose: 12.5 mg/kg/injection, vehicle: water 102 % of control | dose: 25.0 mg/kg/injection, vehicle: water 97 % of control | dose: 50.0 mg/kg/injection, vehicle: water 102 % of control | dose: 100.0 mg/kg/injection, vehicle: water 112 % of control | dose: 200.0 mg/kg/injection, vehicle: water 106 % of control

COc1cc2oc(=O)ccc2cc1[C@@H]1OC(=O)C2(C)O[C@@H]12 (stereo not given in full)
inactive: dose: 0.16 mg/kg/injection, vehicle: water 106 % of control | dose: 0.31 mg/kg/injection, vehicle: water 94 % of control and 96 % of control | dose: 0.62 mg/kg/injection, vehicle: water 99 % of control and 112 % of control | dose: 1.25 mg/kg/injection, vehicle: water 91 % of control and 100 % of control | dose: 2.5 mg/kg/injection, vehicle: water 95 % of control and 100 % of control | dose: 5.0 mg/kg/injection, vehicle: water 97 % of control and 98 % of control | dose: 10.0 mg/kg/injection, vehicle: water 94 % of control

NC(=O)CCC(N)C(=O)O (stereo not given)
inactive: dose: 25.0 mg/kg/injection, vehicle: suspension in saline 109 % of control | dose: 50.0 mg/kg/injection, vehicle: suspension in saline 111 % of control | dose: 100.0 mg/kg/injection, vehicle: suspension in saline 107 % of control | dose: 200.0 mg/kg/injection, vehicle: suspension in saline 102 % of control | dose: 400.0 mg/kg/injection, vehicle: suspension in saline 94 % of control

C=CCc1cn(C2CC(O)C(CO)O2)c(=O)[nH]c1=O (stereo not given)
inactive: [4] 100 % of control | [5] 88 % of control | [6] 87 % of control | [7] 100 % of control | [8] 96 % of control | dose: 400.0 mg/kg/injection, vehicle: saline 98 % of control

COc1cc2c(ccc3c4cc(OC)c(OC)cc4c[n+](C)c23)cc1O
inactive: [5] 111 % of control | [6] 113 % of control

CC1(C)CC1(Br)Br
inactive: dose: 6.25 mg/kg/injection, vehicle: saline with Tween-80 99 % of control | [9] 96 % of control | [10] 99 % of control | [11] 100 % of control | [12] 115 % of control | dose: 200.0 mg/kg/injection, vehicle: saline with Tween-80 100 % of control

[Cl][Co]([Cl])[Cl].[NH-]CC[N-]CC[NH-]
inactive: [5] 103 % of control | [6] 96 % of control | [7] 93 % of control

C=CCOCC1CO1 (stereo not given)
inactive: [4] 105 % of control | [5] 100 % of control | [6] 99 % of control | [7] 104 % of control | [8] 115 % of control

CC(C)N1CC(COc2cccc3ccccc23)OP1(=O)N(CCCl)CCCl (stereo not given)
inactive: dose: 1.56 mg/kg/injection, vehicle: distilled water + Tween-80 98 % of control | dose: 3.13 mg/kg/injection, vehicle: distilled water + Tween-80 96 % of control | dose: 6.25 mg/kg/injection, vehicle: distilled water + Tween-80 101 % of control | dose: 12.5 mg/kg/injection, vehicle: distilled water + Tween-80 102 % of control | dose: 25.0 mg/kg/injection, vehicle: distilled water + Tween-80 102 % of control | dose: 50.0 mg/kg/injection, vehicle: distilled water + Tween-80 95 % of control | dose: 100.0 mg/kg/injection, vehicle: distilled water + Tween-80 106 % of control | dose: 200.0 mg/kg/injection, vehicle: distilled water + Tween-80 90 % of control | dose: 400.0 mg/kg/injection, vehicle: distilled water + Tween-80 90 % of control

CCCN1COC(OCC)C(C)(C)C1 (stereo not given)
inactive: [9] 103 % of control and 111 % of control | [10] 93 % of control and 99 % of control | [11] 106 % of control and 112 % of control | [12] 100 % of control and 101 % of control
